In patent US12593844B2, “Method and compounds to induce plant tolerance against arthropod pests” (Universiteit Gent, priority 2018, dated 2026):
Where two headings read alike, the source gives them in different places.

Legend:
[1] = system: lignification in the Casparian strip; settings: five day old seedlings grown in vitro, continuous exposure to 10 μM; Van de Wouwer et al., 2016; cited from earlier work
[2] = system: C4H gene; experiment: C4H gene expression in root system of rice plants after foliar treatment; assay type: in vivo, Oryza sativa cv. Bomba; settings: fourteen-day old rice plants, foliar treatment 24 and 3 hours prior to harvest, 100 μM
Description: Techniques for measuring and determining the (effect on) activity of C4H are well known to the one of ordinary skill in the art. Useful methods to determine inhibition of C4H activity are (incorporated by reference): • Measurement of the conversion efficiency of trans-cinnamic acid labeled with ^13C or ^14C in the presence of a potential C4H inhibitor in plant cell cultures or in yeast microsomes in which the CYP73A1 is expressed (as described in Schoch et al. 2002; Van de Wouwer et al. 2016; Schalk et al. 1998). Representative inhibition kinetics values obtained in cell suspensions for both competitive and irreversible C4H inhibitors can be found in Table 1 in Schoch et al., 2002 (incorporated by reference). • Inhibition of the C4H enzyme increases the concentration of free trans-cinnamic acid, which is rapidly conjugated in planta. The accumulation of trans-cinnamic acid amino acid conjugates, which can be quantified using HPLC-MS, can be used as a proxy measure for C4H inhibition in planta. This approach is outlined in Steenackers et al. 2016. […] Representative values for the increase in the quantity of trans-cinnamic acid conjugates are found in Supplemental Figure S2 in Steenackers et al. 2016 (incorporated by reference). • Inhibition of the C4H enzyme causes a compensatory upregulation of the C4H gene, as shown in Example 20. […]

[3] = system: Arabidopsis thaliana seedlings; settings: continuous exposure of seedlings; Steenackers et al. 2016; read-out: IC50-root (dose required to reduce primary root elongation by 50%); cited from earlier work
[4] = system: Arabidopsis thaliana seedlings; experiment: Primary root elongation of Arabidopsis thaliana seedlings (IC50-root); assay type: in vivo; settings: continuous exposure of seedlings, unpublished data, read-out: IC50-root (dose required to reduce primary root elongation by 50%)
[5] = system: Tetranychus urticae; experiment: Two-spotted spider mite reproduction on tomato after foliar spray; assay type: in vivo; settings: 300 μM foliar spray, ten days after inoculation with ten females
Procedure: Tomato (cv. Moneymaker) seeds were obtained from Vreeken's Zaden (Dordrecht, the Netherlands). Seeds were germinated on potting soil at 22° C.; seedlings were then transferred to individual pots filled with potting soil and placed in a growth chamber at 24° C. with 16 hours per day of fluorescent light.
(§1) A 100 mM piperonylic acid stock was prepared by dissolving piperonylic acid (Sigma-Aldrich, Saint-Louis, USA) in DMSO (Duchefa Biochemie, Haarlem, the Netherlands). Before use, this stock solution was diluted with distilled water to a concentration of 300 μM and mixed with 0.1 v/v % Tween 20. Working solutions of 1000 μM PA (Aculops experiment) were prepared in a similar manner from a 300 mM stock solution. The resulting spraying solution was applied to plants until run-off using an atomizer. […]
Tomato plants in the early four-leaf stage were inoculated with T. urticae by placing ten adult females on the second leaf of each plant. […] All moving mites present on the leaf were counted (regardless of life stage).
Images of tomato leaves damaged by S. exigua were analyzed using the ImageJ software. For T. urticae damage, the total area of the second leaf of each plant was quantified using the polygon selection tool. Then, the total area of chlorotic patches on the leaf was measured in the same manner and the ratio of both values was calculated to obtain the percentage of chlorotic leaf.

[6] = system: Rhopalosiphum padi; experiment: Bird cherry-oat aphid reproduction on wheat, first experiment; assay type: in vivo; settings: 300 μM foliar spray, ten days
Procedure: (§2) Winter wheat (cv. Sahara) seeds were obtained from Aveve Agrarisch (Landen, Belgium). Seeds were washed with a 10% ethanol solution to remove residual fungicide traces and then germinated on wet paper at room temperature. Seedlings were transferred to potting soil and placed in a growth chamber at 22° C. with 16 hours per day of fluorescent light.
as §1, with “atomizer. As a control, a solution consisting of an equivalent amount of DMSO and Tween 20 was used in the same manner.” for “atomizer.”
(§3) In the first experiment, R. padi aphids were reared on barley plants grown at room temperature. […] Twenty-four hours later, the number of remaining adults on each pot was recorded. Ten days later, the number of aphids in each pot was counted. The reproductive factor was calculated by dividing the number of aphids counted after ten days by the number of remaining adult females twenty-four hours after inoculation.

[7] = system: Rhopalosiphum padi; experiment: Bird cherry-oat aphid reproduction on wheat, second experiment (synchronized aphids); assay type: in vivo; settings: 300 μM foliar spray, ten days
Procedure: as §2
as §1, with “atomizer. As a control, a solution consisting of an equivalent amount of DMSO and Tween 20 was used in the same manner.” for “atomizer.”
as §3, with “second” for “first”

[8] = system: Bemisia tabaci; experiment: Tobacco whitefly egg development on cotton after foliar spray; assay type: in vivo; settings: 300 μM foliar spray
Procedure: Cotton seeds were germinated in individual pots filled with potting soil and placed in a greenhouse with supplemental lighting (16 hours of light per day).
(§4) A 100 mM piperonylic acid stock was prepared by dissolving piperonylic acid (Sigma-Aldrich, Saint-Louis, USA) in DMSO (Duchefa Biochemie, Haarlem, the Netherlands). Before use, this stock solution was diluted with distilled water to a concentration of 300 μM and mixed with 0.1 v/v % Tween 20. Working solutions of 1000 μM PA (Aculops experiment) were prepared in a similar manner from a 300 mM stock solution. The resulting spraying solution was applied to plants until run-off using an atomizer. As a control, a solution consisting of an equivalent amount of DMSO and Tween 20 was used in the same manner. Plants were sprayed twice, one and eight days before inoculation. The tomato plants used in the spider mite experiment were sprayed a final time five days after inoculation, but only on the non-inoculated leaves to avoid direct effects of the spray on the mites.
B. tabaci (biotype Q) was reared on cotton plants under controlled laboratory conditions. Approximately sixty mixed-sex adults were collected and placed in ventilated vials attached to the leaves of two-week old cotton plants. After being allowed to oviposit for 24 hours, the adults were removed. Eight days after oviposition, leaves were detached and the number of unhatched eggs, crawlers and nymphs per plant was recorded.

[9] = system: Steneotarsonemus spinki; experiment: Greenhouse experiment: rice yield and fertility under panicle rice mite stress; assay type: in vivo
Procedure: Rice seeds (cv. Kitaake) were sterilized and germinated on wet paper in the dark at 30° C. Seedlings were transferred to sterilized potting soil and placed in a climate-controlled compartment at the Ghent University greenhouse complex (Melle, Belgium). The compartment was known to host a natural mite infestation; the causal mite had previously been identified as Steneotarsonemus spinki by professor Thomas van Leeuwen of the agrozoology lab at Ghent University. Pots were arranged in a completely randomized manner in the same tray.
To determine the effects of C4H inhibition on yield and fertility in the presence of mites, rice (Oryza sativa cv. Kitaake) was grown in a greenhouse until maturity and treated with a control or 300 μM PA foliar spray at bi-weekly intervals. This greenhouse is naturally infested with the panicle rice mite (Steneotarsonemus spinki).

[10] = system: Aculops lycopersici; experiment: Tomato russet mite population growth on tomato; assay type: in vivo; settings: ten days after inoculation with 30 mites
Procedure: as §4
A. lycopersici was reared on tomato plants in an incubator at 27° C.; 50% RH and 16:8 L:D. For inoculation of the PA-treated (300 μM or 1000 μM) or Control plants, 30 mites were transferred with a fine brush to a small leaf disk (1 cm), which was then placed on top of the plants. The mites were allowed the reproduce on the tomato plants during ten days, after which the total number of mites was compared.

[11] = system: Frankliniella occidentalis; experiment: Western flower thrips progeny on pepper plants; assay type: in vivo; settings: 300 μM, progeny counted three days after four-day infestation with ten adults (control 19.0±1.84)
Procedure: Pepper seedlings (cv. Cayenne long slim) were transferred to individual pots with potting soil two weeks after sowing. Plants were maintained in a growth room (25° C., 16:8 L:D) for two additional weeks. Plants were removed from the soil and placed with their roots in water (to accommodate the Plexiglas cage system) at the onset of thrips infestation (4 weeks old).
as §4, with “The tomato plants used in the spider mite experiment were sprayed a final time five days after inoculation, but only on the non-inoculated leaves to avoid direct effects of the spray on the mites.” left out
F. occidentalis was reared on bean pods in an incubator at 28° C.; 70% RH and 16:8 L:D. For inoculation of the PA-treated (300 μM) or Control plants, 10 females (two days old since turning adult) were transferred with a fine brush to a pepper plant inside a Plexiglas cage. After four days, all females were removed, while their progeny was counted three days later.

[12] = system: Spodoptera exigua; experiment: Acute (direct) toxicity to Spodoptera exigua L3 larvae; assay type: in vivo; settings: 300 μM, out of 30 larvae (control 29)
Procedure: Spodoptera exigua—S. exigua was reared on an artificial diet in a 24° C. incubator. Recently molted L3 larvae were placed in petri dishes containing tissue paper and 2 g of artificial feed pellets. Both tissue paper and pellets were wetted with 10 ml of either distilled water or distilled water containing 300 μM PA. Twenty-four and seventy-two hours later, the number of surviving caterpillars was counted. A caterpillar was considered alive if it was either actively moving, or if it moved when gently prodded. It was also recorded whether a caterpillar was feeding (present on a feed pellet) to measure whether PA-treated feed pellets were repellent to the caterpillar.
S. exigua—Direct toxicity of piperonylic acid (PA) was determined using the protocol outlined in the materials and methods section. Briefly, 30 recently molted L3 larvae were placed per petri dish containing tissue paper and food pellets that had been wetted with either a 300 μM piperonylic acid solution or a water control.

[13] = system: Tetranychus urticae; experiment: Acute (direct) toxicity to spider mites sprayed on leaf discs; assay type: in vivo; settings: 300 μM spray, after 24 h
Procedure: Tetranychus urticae—Spider mites of a laboratory reference strain were collected and placed on arenas consisting of a square bean leaf disc, placed on wet cotton wool and lined with paper tissue. Each arena received 25 to 30 adult female mites. The arenas were then sprayed in a custom-build spray tower with either 300 μM PA or control solution, six replicates each. The mites were incubated at 25° C., 18:6 L:D. Mortality was scored after 24 h. Mites were scored as either drowned (in water barrier), alive or dead (not moving its own body length within 10 seconds after prodding with a tiny brush).
T. urticae—Direct toxicity of PA to spider mites was evaluated by spraying mites on leaf disks with either 300 μM PA or control solution.

[14] = system: Aculops lycopersici; experiment: Acute (direct) toxicity to russet mites sprayed on leaf disks; assay type: in vivo; settings: 300 μM spray, after 24 h
Procedure: Aculops lycopersici—Tomato russet mites were collected from a lab culture and transferred to a tomato leaf disk placed on agar. Each disk received 25 to 30 adult mites. The disks with mites were then sprayed in a custom-build spray tower with either 300 μM PA or control solution, six replicates each. The russet mites were incubated at 25° C., 18:6 L:D. Mortality was scored after 24 h. Mites were scored as either lost (in agar barrier), alive or dead.
A. lycopersici—Direct toxicity of PA to russet mites was evaluated by spraying mites on leaf disks with either 300 μM PA or control solution.

[15] = rice, 300 μM foliar spray bi-weekly, three months after emergence

O=C(O)c1ccc(I)cc1 [4-IBA, 4-iodobenzoic acid]
increase of the number of non-lignified endodermal cells in the Casparian strip region [1]: 57%

O=C(O)C=Cc1ccc2c(c1)OCO2 [MDCA, 3,4-methylenedioxycinnamic acid]
increase of C4H expression in the root system [2]: three-fold | IC50 [3]: 5.07 µM | increase of the number of non-lignified endodermal cells in the Casparian strip region [1]: 104%

O=C(O)c1ccc2c(c1)OCO2 [PA, Piperonylic acid]
increase of C4H expression in the root system [2]: ten-fold | IC50 [4]: 40 µM | change in number of mites present on the leaf vs control [5]: −49% | change in percentage of visibly chlorotic leaf area vs control [5]: −62% | change in reproductive factor of R. padi vs control [6]: −32% | change in reproductive factor of R. padi vs control [7]: 29% | number of eggs deposited on cotton plants ([8]; 24 hours oviposition): did not affect | eggs failed to hatch ([8]; eight days after oviposition (control 3%)): 20% | eggs developed into nymphs ([8]; eight days after oviposition (control 16%)): 9% | change in number of seeds vs control ([9]; rice cv. Kitaake, 300 μM foliar spray at bi-weekly intervals, three months after emergence): +104% | empty panicles vs control [9, 15]: fewer empty panicles | tillers developed vs control [9, 15]: more tillers | change in seed germination rate vs control ([9]; seeds from treated plants, seven days on wet paper): +45% | reduction of russet mite population growth vs control ([10]; 300 μM, not significant (p=0.052)): about 50% | reduction of russet mite population growth vs control ([10]; 1000 μM, not significant (p=0.089)): about 50% | number of thrips larvae recovered (mean±SE) [11]: 11.33±1.82 larvae | L3 larvae alive ([12]; after seventy-two hours): 27 | L3 larvae alive ([12]; after twenty-four hours): 28 | spider mite mortality vs control [13]: No significant difference | russet mite mortality vs control [14]: No significant difference | increase of the number of non-lignified endodermal cells in the Casparian strip region [1]: 134%
